In brackets after ≈: the same amount, converted by molar mass. Several values for one entry are separate records, joined by “and”; a condition that tells them apart may be missing. Identical values can stand only once. Like-named read-outs stand apart in the source and are kept apart here. Marks after values point to notes of the source that are not given here.
How the values were obtained:
[1] = lipid and aqueous solubilities of 5-FC and its derivatives; assay type: physicochemical; settings: for solubility at 48 h: isopropyl myristate, organic solvent or mixture, read-out: Solubility, IPM
physchem = settings: organic solvent or mixture
[2] = water, equilibrated three hours, 180 min; cited from earlier work
[3] = hydrolysis of 5-IDC derivatives in pH 7.1 buffer; assay type: physicochemical; settings: 24°, read-out: half-life (t1/2) of hydrolysis
Protocol: The hydrolysis of the prodrugs in pH 7.1 buffer (0.05M,=0.15) was monitored by UV spectroscopy at 294 nm, by measuring the appearance of 5-IDC. A plot of log (At -A.infin.) versus time was linear so first-order reaction kinetics were assumed. Each hydrolysis was performed in triplicate at a constant temperature of 24.0°±0.1° and the half-lives and rates of hydrolysis were obtained using the Guggenheim method. Stock solutions of the prodrugs were made in dry acetonitrile, and 0.1 ml of the solution was added to 3 ml of buffer in a cuvette.

[4] = lipid and aqueous solubilities of 5-IDC and its prodrugs; assay type: physicochemical; settings: for Solubility, IPM / solubility at 48 h: isopropyl myristate; for solubility at 48 h: organic solvent or mixture, read-out: Solubility, IPM; for solubility: pH 5.5, water, apparent
Protocol: The approximate aqueous solubilities were determined by the addition of 100 mg of solid to 1 ml distilled water (pH 5.5). Water was added until all the solid dissolved.
The lipid solubilities of 5-iodo-2'-deoxycytidine and its N-Mannich base prodrugs were determined in isopropyl myristate. Three suspensions of the drug or prodrugs were stirred for 48 hours and then filtered. The filtrates were then diluted with either methanol, for the parent drug or dry acetonitrile, for the N-Mannich base prodrugs. The concentration of compound in solution was determined by monitoring the UV absorption at 294 nm (ε=5.79×10^3 1/mole) for 5-IDC, 333 nm (ε=2.46×10^4) for the formamidine derivative and 296 nm for the derivatives. The aqueous solubilities were obtained as described above.

[5] = phosphate buffer, pH 7.1
[6] = cited from earlier work
[7] = delivery of theophylline, previous study of Sloan et al; settings: from flux of previous study
[8] = solubilities of prodrugs and parent drugs in selected solvents (Example 8); settings: Solubility, suspensions sonicated for 3 hr
[9] = cited from earlier work; remark: listed apart in the source
[10] = cited from earlier work; remark: listed apart in the source
[11] = delivery of 5-FU, previous data of Mollgaard et al; assay type: in vitro ADME, human
Protocol: The diffusion cell data previously reported for the delivery of 5-FU from PG (Mollgaard et al, supra), were analyzed and a flux of 7.8×10^-4 mg/cm^2.hr with a lag time of 17 hr was calculated. […] […]. […] Thus, the present study of delivery of 5-FU appears to be consistent with the observations of Mollgaard et al, supra.
. When the data for the diffusion of the best prodrug of 5-FU (1-butyryloxymethylderivative) described in Mollgaard et al, supra, were used to calculate a flux for that prodrug, a flux of 17.2×10^-4 mg/cm^2.hr was obtained. […]

[12] = hydrolysis / stability of adenine and cytosine adducts followed by UV (Example 1); assay type: physicochemical; settings: water, dilute aqueous solution, about 1×10^-4 mole/l, read-out: t1/2 of hydrolysis (converted)
From the text: The methanol UV spectra of the adducts of cytosine and adenine were stable for up to 2 hr. The water UV spectrum of the mono-adduct of adenine 1b was essentially identical with adenine itself under the same conditions. […] The rates of hydrolysis of three of the adducts (1d, 1e and 2d) were followed by UV at about 1×10^-4 mole/1 by following the decrease in intensity of their respective UV max with time. Spectra were monitored until stable spectra were produced which in all cases were essentially identical with the parent purine or pyrimidine. Plots of At-At.infin. versus time were used to determine t 1/2. The hydrolyses of the adducts were also followed by ^1 H NMR spectroscopy. Solutions (DMSO-d6) of the adducts at about 30 mg/ml, were diluted with D2 O in a dropwise fashion until a 1:1 ratio of the two solvents was reached. Integrations (5 times) of the spectra were taken after each addition of D2 O. Comparison of the average of the integrations of the N--CH2 --N absorptions and the integrations of the C2 --H, C8 --H, C5 --H or C6 --H absorptions was used to quantitate the amount of decomposition.

[13] = skins leached 120 hours, no methanol wash
Protocol: After this last sampling of the receptor phase (amount left in skin), the receptor phase was again changed. […] The cumulative amount of theophylline in the receptor phase was calculated as described above. This phase of the diffusion cell studies is termed the second application.
Several control studies were also performed. […] This was the baseline for the second application. […] Theophylline in PG was then applied to assess the effect of the methanol wash (used to remove the remaining donor phase from the first application) on the skin's permeability. […] The receptor phase was changed and a suspension of Th in PG was added as before.
The slopes for each phase of the plotted lines were obtained by linear regression analysis (r>0.990); the slopes were then divided by the surface area of the diffusion cells (4.9 cm^2) to obtain a value for flux (J) in mg/cm^2 /h. The reported fluxes are the average flux of the three diffusion cells.

[14] = solubility of 5-iodo-2'-deoxycytidine in various vehicles; assay type: physicochemical; settings: for solubility: organic solvent or mixture
[15] = flux of theophylline in PG after first application of 5-IDC or prodrug (second application); assay type: in vitro ADME, hairless mice
Protocol: A suspension of theophylline in PG (Th/PG; 0.5 ml, 0.4M) was then applied to each diffusion cell. […] This phase of the diffusion cell experiment is labelled the second application.
The slopes for each phase of the plotted lines were obtained by linear regression analysis; the slopes were then divided by the surface area of the diffusion cells (4.9 cm^2) to obtain a value for flux (J) in mg/cm^2 /h. The reported fluxes are the average flux for the three cells.

**Q.** Which solubility ([1]; distilled water (pH 5.5), approximate, decomposing) does the source give for `Nc1nc(=O)[nH]cc1F` [Compound 5-FC, 5-fluorocytosine] here?
**A.** 7000 µg/mL and 50000 µM

**Q.** And the solubility at 48 h [1]?
**A.** 0.039 mM

**Q.** What about the solubility at 48 h ([1]; ±SD) of the same molecule?
**A.** 0.005 mg/mL

**Q.** And the solubility (physchem; 1-octanol)?
**A.** 0.42 mg/mL (≈ 3.25 mM)

**Q.** And the solubility (physchem; dmf)?
**A.** 3.52 mg/mL (≈ 27.3 mM)

**Q.** What about the solubility (physchem; ethylene glycol) of the same molecule?
**A.** 20 mg/mL (≈ 155 mM)

**Q.** And the solubility (physchem; ethylene glycol:formamide (1:1))?
**A.** 17.5 mg/mL (≈ 135 mM)

**Q.** What about the solubility (physchem; ethylene glycol:formamide (4:1)) of the same molecule?
**A.** 17.9 mg/mL (≈ 139 mM)

**Q.** And the solubility (physchem; formamide)?
**A.** 13.7 mg/mL (≈ 106 mM)

**Q.** And the solubility (physchem; ipm)?
**A.** 0.0045 mg/mL (≈ 0.0349 mM)

**Q.** What about the solubility (physchem; pg) of the same molecule?
**A.** 10.8 mg/mL (≈ 83.7 mM)

**Q.** And the “aqueous solubility, literature value” [2]?
**A.** 120 mM (≈ 15.5 mg/mL)

**Q.** Which half-life [3] does the source give for `O=c1nc(NCN2CCCCC2)c(I)cn1[C@H]1C[C@H](O)[C@@H](CO)O1` [XXIIb, N^4-(1"-piperidinyl)methyl-5-iodo-2'-deoxycytidine hydrate] here?
**A.** 0.89 ± 0.06 min

**Q.** And the “Solubility, IPM” value ([4]; ±SD, 2880 min, hydrate)?
**A.** 1.6(0.5) mg/ml(× 10^2)

**Q.** Which “Half-life of hydrolysis, cytosine derivatives” value [5] does the source give for `CCN(CC)CNc1ccn(CN(CC)CC)c(=O)n1` [Cytosine (Et), Bis-N^4,1-(diethylamino)methylcytosine] here?
**A.** 0.26(0.00) min

**Q.** Which results are given for `Cn1c(=O)c2c(ncn2CO)n(C)c1=O` [7-(hydroxymethyl)theophylline]?
**A.** flux ([6]; not told): 11.1×10^-2 mg/cm^2.hr; times more effective than theophylline in delivering theophylline [7]: about 6.5 times

**Q.** With `O=c1[nH]cc(F)c(=O)[nH]1` [VII, 5-Fluorouracil] as the molecule, how does the solubility ([8]; isopropyl myristate, organic solvent or mixture, IPM) read?
**A.** 0.0044 mg/mL (≈ 0.0338 mM)

**Q.** And the solubility ([8]; propylene glycol, organic solvent or mixture, PG)?
**A.** 15.1 mg/mL (≈ 116 mM)

**Q.** And the solubility ([8]; water)?
**A.** 26.2 mg/mL (≈ 201 mM)

**Q.** And the lag time ([9]; PG, calculated from literature data (Mollgaard et al))?
**A.** 17 h

**Q.** What about the pKa [10] of the same molecule?
**A.** 13.0

**Q.** What about the “theoretical 24 hr value for 5-FU diffused” value ([11]; PG, 24 hr, 4.9 cm^2, calculated from literature flux and lag) of the same molecule?
**A.** 0.015 mg

**Q.** With `c1nc(NCN2CCCCC2)c2ncn(CN3CCCCC3)c2n1` [Compound 1e, Bis-N^6,9-(1'-piperidinyl)methyladenine] as the molecule, how does the half-life at 100 µM [12] read?
**A.** ~5 min

**Q.** Which half-life at 100 µM [12] does the source give for `O=c1nc(NCN2CCOCC2)ccn1CN1CCOCC1` [Compound 2d, Bis-N^4,1-(4'-morpholinyl)methylcytosine] here?
**A.** ~180 min

**Q.** Which results are given for `CCCC(=O)OCn1cnc2c1c(=O)n(C)c(=O)n2C` [7-butyryloxymethyl)theophylline]?
**A.** flux ([6]; previous study (Sloan et al), IPM): 7.25×10^-2 mg/cm^2.hr; times more effective than theophylline in delivering theophylline [7]: 4.2 times

**Q.** With `Cn1c(=O)c2[nH]cnc2n(C)c1=O` [I, Theophylline] as the molecule, how does the flux ([6]; not told) read?
**A.** 1.72±0.13×10^-2 mg/cm^2.hr

**Q.** And the “flux for Th/PG, baseline” value [13]?
**A.** 1.41±0.09×10^-3 mg/cm2 /h

**Q.** What does the source list for `O=c1nc(NCN2CCOCC2)c(I)cn1[C@H]1C[C@H](O)[C@@H](CO)O1` [XXIIIb, N^4-(1"-morpholinyl)methyl-5-iodo-2'-deoxycytidine hydrate]?
**A.** half-life [3]: 12.8 ± 0.6 min; solubility at 48 h [4]: 0.029 mM; solubility at 48 h ([4]; ±SD): 0.013 mg/mL; solubility [4]: 20000 µg/mL and 44000 µM

**Q.** With `CCCC(=O)OCn1cc(F)c(=O)[nH]c1=O` [1-butyryloxymethylderivative] as the molecule, how does the flux ([9]; not told) read?
**A.** 17.2×10^-4 mg/cm^2.hr

**Q.** And the “times better than 5-FU in delivering 5-FU” value ([11]; from literature flux)?
**A.** 2.2 times

**Q.** With `c1nc(NCN2CCOCC2)c2ncn(CN3CCOCC3)c2n1` [Compound 1d, Bis-N^6,9-(4'-morpholinyl)methyladenine] as the molecule, how does the half-life at 100 µM [12] read?
**A.** ~30 min

**Q.** What does the source list for `Nc1nc(=O)n([C@H]2C[C@H](O)[C@@H](CO)O2)cc1I` [Compound 5-IDC, 5-iodo-2'-deoxycytidine]?
**A.** X-intercept, initial phase (IPM): 5.0 h; X-intercept, steady-state (IPM): 14.0 h; duration of initial phase (IPM): 19 h; duration of steady-state delivery (IPM): 11 h; conversion of 5-IDC to 5-IDU (diffusion cells, HPLC): no conversion of 5-IDC to 5IDU was detected; solubility ([14]; 1-octanol, read-out: Solubility of 5-IDC, mole fraction): 0.96 mM; solubility ([14]; 1-propanol, read-out: Solubility of 5-IDC, mole fraction): 6.09 mM; Solubility of 5-IDC, mole fraction ([14]; IPM): 0 mole fraction (× 10^3); solubility ([14]; eg, read-out: Solubility of 5-IDC, mole fraction): 89.2 mM; solubility ([14]; ethylene glycol, EG, ±SD, read-out: Solubility of 5-IDC): 31.5 mg/mL; solubility ([14]; formamide, For, ±SD, read-out: Solubility of 5-IDC): 56.9 mg/mL; solubility ([14]; formamide, read-out: Solubility of 5-IDC, mole fraction): 161 mM; solubility ([14]; 1-octanol, ±SD, read-out: Solubility of 5-IDC): 0.34 mg/mL; solubility ([14]; 1-propanol, ±SD, read-out: Solubility of 5-IDC): 2.15 mg/mL; solubility ([14]; pg, read-out: Solubility of 5-IDC, mole fraction): 55.7 mM; solubility ([14]; propylene glycol, PG, ±SD, read-out: Solubility of 5-IDC): 19.7 mg/mL; increase of flux of theophylline from PG ([15]; after 5-IDC): 1.3 times; X-intercept ([15]; first application in IPM): 0.6 h; Flux of theophylline from PG after first application ([15]; first application in IPM, Th/PG 0.4 M, ±SD): 246 (17) mg/cm^2 /h × 10^3; Solubility, IPM [4]: 0 M(× ^5); Solubility, IPM ([4]; ±SD): 0 mg/ml(× 10^2); solubility [4]: < 1000 µg/mL and < 2800 µM

From US4975433A, “Aminomethyl derivatives of biologically active substances and enhanced delivery thereof across topical membranes” (priority 1989, dated 1990)
